# Values joined by “and” are separate entries in the source; they are usually repeats but may differ in a detail not shown here. Equal values may be shown once. Read-outs that look alike come from different tables or passages of the source.
# Columns and labels:
# [1] = Permeability (Papp) across the blank inserts; type: in vitro ADME; details: blank inserts (no cells), Figure 1F; for Papp at 30 min: not told
# Procedure: Therefore, the subsequent experiments were all completed on day 6. The culture medium was removed from the apical and basolateral sides of the inserts and washed twice with preheated Hank’s balanced salt solution (HBSS). Fresh HBSS was then added to both the apical and basolateral chambers. […] Next, 200 μl aliquots were collected from the basolateral chamber after 30 min of incubation at 37°C. The concentrations of the tested agents in the basolateral chamber were measured.
# The apparent permeability coefficient (Papp, cm/s) values of the tested agents across the in vitro BBB model were calculated using the equation ([Tavelin et al., 2002]):(1) Papp=(Q/1800)/(S×C0)
# where S is the surface area of the insert membrane (0.33 cm^2 for 6.5 mm inserts, 4.46 cm^2 for 24 mm inserts), Q is the transported amount of the tested agents transported from the donor chamber to the receiver chamber for 30 min (1800 s), and C0 is the initial concentration of the tested agents in the donor chamber.
# [2] = test system: double co-culture BBB model (hCMEC/D3 and U251 cells); test: In vitro BBB permeability study (Papp), double co-culture with U251 cells (h+U); type: in vitro ADME, Homo sapiens; details: group h+U, Figure 1D/1E; single biological replicate; listed as NaF
# [3] = as above; type: in vitro ADME, Homo sapiens; details: human, group h+U, Figure 1D/1E
# [4] = BBB permeability in brain-specific Gdnf knockdown mice (brain distribution of fluorescein and FITC-Dex); details: Gdnf silencing (shGdnf) vs shNC mice; i.v., 30 min
# [5] = In vitro BBB permeability study (Papp), double co-culture with SH-SY5Y cells (h+S); type: in vitro ADME, Homo sapiens; details: human, group h+S, Figure 1D/1E
# [6] = test system: double co-culture BBB model (hCMEC/D3 and SH-SY5Y cells); test: as above; type: in vitro ADME, Homo sapiens; details: group h+S, Figure 1D/1E; single biological replicate; listed as NaF
# [7] = test system: triple co-culture BBB model (hCMEC/D3, U251 and SH-SY5Y cells); test: In vitro BBB permeability study (Papp), triple co-culture BBB model
# [8] = as above; details: human
# [9] = test system: hCMEC/D3 mono-culture BBB model; test: In vitro BBB permeability study (Papp), hCMEC/D3 mono-culture BBB model
# [10] = as above; details: human
# U251 cells monolayer = test: Permeability (Papp) across U251 mono-culture model; type: in vitro ADME, Homo sapiens; details: group U251 mono-culture, Figure 1F; single replicate
# [11] = Permeability (Papp) across U251 mono-culture model; type: in vitro ADME, Homo sapiens; details: human, group U251 mono-culture, Figure 1F
# [12] = mean of four replicates, read-out: Papp Mean
# [13] = single replicate, read-out: Papp
# [14] = single biological replicate, read-out: Papp
smiles,measurement,setting,value
"O=C1OC2(c3ccc(O)cc3Oc3cc(O)ccc32)c2ccccc21 [fluorescein, fluorescein sodium]",Papp,[1]; single replicate,72.71 ×10⁻⁶ cm/s and 72.14 ×10⁻⁶ cm/s and 72.59 ×10⁻⁶ cm/s
same,Papp at 30 min,[1]; [12],71.6 ×10⁻⁶ cm/s
same,Papp at 30 min,[1]; [13],68.7 ×10⁻⁶ cm/s
same,Papp A→B,[2],30.2 ×10⁻⁶ cm/s and 29.6 ×10⁻⁶ cm/s and 28.1 ×10⁻⁶ cm/s
same,Papp A→B at 30 min,[3]; [12],29.1 ×10⁻⁶ cm/s
same,Papp A→B at 30 min,[3]; [14],28.2 ×10⁻⁶ cm/s
same,brain-to-plasma concentration ratios,[4],notable increases
same,Papp A→B at 30 min,[5]; [12],27.8 ×10⁻⁶ cm/s
same,Papp A→B at 30 min,[5]; [14],29.4 ×10⁻⁶ cm/s
same,Papp A→B,[6],29.1 ×10⁻⁶ cm/s and 23.2 ×10⁻⁶ cm/s and 29.5 ×10⁻⁶ cm/s
same,Papp A→B,"[7]; read-out: Papp(cm/s), group h+S+U, Figure 1D/1E, single biological replicate, listed as NaF",26.4 ×10⁻⁶ cm/s and 23.5 ×10⁻⁶ cm/s and 23.6 ×10⁻⁶ cm/s
same,Papp A→B,"[7]; read-out: Papp, Triple group, single replicates, Figure 2R",24.7 ×10⁻⁶ cm/s and 24.9 ×10⁻⁶ cm/s and 25 ×10⁻⁶ cm/s
same,Papp A→B,"[7]; read-out: Papp, Triple group, single replicates, Figure 2T",20.2 ×10⁻⁶ cm/s and 20.5 ×10⁻⁶ cm/s and 19.8 ×10⁻⁶ cm/s
same,Papp A→B,"[7]; read-out: Papp, Triple+PP2 group, single replicates, Figure 2T",26.4 ×10⁻⁶ cm/s
same,Papp A→B,"[7]; read-out: Papp, Triple+SPP group, single replicates, Figure 2R",29.1 ×10⁻⁶ cm/s and 30.2 ×10⁻⁶ cm/s
same,Papp A→B at 30 min,"[8]; Papp Mean, Triple group, mean of 4, Figure 2R",25 ×10⁻⁶ cm/s
same,Papp A→B at 30 min,"[8]; Papp Mean, Triple group, mean of 4, Figure 2T",20.5 ×10⁻⁶ cm/s
same,Papp A→B at 30 min,"[8]; Papp Mean, Triple+PP2 group, mean of 4, Figure 2T",27.5 ×10⁻⁶ cm/s
same,Papp A→B at 30 min,"[8]; Papp Mean, Triple+SPP group, mean of 4, Figure 2R",30 ×10⁻⁶ cm/s
same,Papp A→B at 30 min,"[8]; Papp Mean, group h+S+U, Figure 1D/1E, mean of four replicates",24.9 ×10⁻⁶ cm/s
same,Papp A→B at 30 min,"[8]; Papp(cm/s), group h+S+U, Figure 1D/1E, single biological replicate",26.1 ×10⁻⁶ cm/s
same,Papp A→B at 30 min,"[8]; Papp, Triple group, single replicates, Figure 2R",25.3 ×10⁻⁶ cm/s
same,Papp A→B at 30 min,"[8]; Papp, Triple group, single replicates, Figure 2T",21.5 ×10⁻⁶ cm/s
same,Papp A→B at 30 min,"[8]; Papp, Triple+PP2 group, single replicates, Figure 2T",28.2 ×10⁻⁶ cm/s
same,Papp A→B at 30 min,"[8]; Papp, Triple+SPP group, single replicates, Figure 2R",30.6 ×10⁻⁶ cm/s
same,Papp A→B,"[9]; read-out: Papp(cm/s), Figure 2N, group GDNF+SPP, individual replicates",22 ×10⁻⁶ cm/s and 26.7 ×10⁻⁶ cm/s
same,Papp A→B,"[9]; read-out: Papp(cm/s), Figure 2N, group GDNF, individual replicates",17.7 ×10⁻⁶ cm/s and 20.6 ×10⁻⁶ cm/s and 18.3 ×10⁻⁶ cm/s
same,Papp A→B,"[9]; read-out: Papp(cm/s), Figure 2N, group Mono, individual replicates",24.3 ×10⁻⁶ cm/s and 25.1 ×10⁻⁶ cm/s and 23.7 ×10⁻⁶ cm/s
same,Papp A→B,"[9]; read-out: Papp(cm/s), Figure 2P, group GDNF+PP2, individual replicates",28.3 ×10⁻⁶ cm/s
same,Papp A→B,"[9]; read-out: Papp(cm/s), Figure 2P, group GDNF, individual replicates",23.3 ×10⁻⁶ cm/s (2×) and 23.8 ×10⁻⁶ cm/s
same,Papp A→B,"[9]; read-out: Papp(cm/s), Figure 2P, group Mono, individual replicates",30.5 ×10⁻⁶ cm/s and 31.5 ×10⁻⁶ cm/s and 30.3 ×10⁻⁶ cm/s
same,Papp A→B,"[9]; read-out: Papp(cm/s), group h, Figure 1D/1E, single biological replicate, listed as NaF",32 ×10⁻⁶ cm/s and 32.7 ×10⁻⁶ cm/s and 32.5 ×10⁻⁶ cm/s
same,Papp A→B,"[9]; read-out: Papp(cm/s), group hCEMC/D3 mono-culture, Figure 1F, single replicate",35.9 ×10⁻⁶ cm/s and 34.8 ×10⁻⁶ cm/s and 36 ×10⁻⁶ cm/s
same,Papp A→B,"[9]; read-out: Papp, Mono group, single replicates, Figure 2R",31.7 ×10⁻⁶ cm/s and 33.3 ×10⁻⁶ cm/s and 31.4 ×10⁻⁶ cm/s
same,Papp A→B,"[9]; read-out: Papp, Mono group, single replicates, Figure 2T",29.5 ×10⁻⁶ cm/s and 30.3 ×10⁻⁶ cm/s
same,Papp A→B at 30 min,"[10]; Papp Mean, Mono group, mean of 4, Figure 2R",31.8 ×10⁻⁶ cm/s
same,Papp A→B at 30 min,"[10]; Papp Mean, Mono group, mean of 4, Figure 2T",30.4 ×10⁻⁶ cm/s
same,Papp A→B at 30 min,"[10]; Papp Mean, group h, Figure 1D/1E, mean of four replicates",32.2 ×10⁻⁶ cm/s
same,Papp A→B at 30 min,"[10]; Papp Mean, group hCEMC/D3 mono-culture, Figure 1F, mean of four replicates",35.7 ×10⁻⁶ cm/s
same,Papp A→B at 30 min,"[10]; Papp(cm/s) Mean, Figure 2N, group GDNF+SPP, group mean",24.5 ×10⁻⁶ cm/s
same,Papp A→B at 30 min,"[10]; Papp(cm/s) Mean, Figure 2N, group GDNF, group mean",19 ×10⁻⁶ cm/s
same,Papp A→B at 30 min,"[10]; Papp(cm/s) Mean, Figure 2N, group Mono, group mean",23.8 ×10⁻⁶ cm/s
same,Papp A→B at 30 min,"[10]; Papp(cm/s) Mean, Figure 2P, group GDNF+PP2, group mean",28.2 ×10⁻⁶ cm/s
same,Papp A→B at 30 min,"[10]; Papp(cm/s) Mean, Figure 2P, group GDNF, group mean",23.5 ×10⁻⁶ cm/s
same,Papp A→B at 30 min,"[10]; Papp(cm/s) Mean, Figure 2P, group Mono, group mean",30.8 ×10⁻⁶ cm/s
same,Papp A→B at 30 min,"[10]; Papp(cm/s), Figure 2N, group GDNF+SPP, individual replicates",26.5 ×10⁻⁶ cm/s
same,Papp A→B at 30 min,"[10]; Papp(cm/s), Figure 2N, group GDNF, individual replicates",19.4 ×10⁻⁶ cm/s
same,Papp A→B at 30 min,"[10]; Papp(cm/s), Figure 2N, group Mono, individual replicates",21.9 ×10⁻⁶ cm/s
same,Papp A→B at 30 min,"[10]; Papp(cm/s), Figure 2P, group GDNF+PP2, individual replicates",27.5 ×10⁻⁶ cm/s
same,Papp A→B at 30 min,"[10]; Papp(cm/s), Figure 2P, group GDNF, individual replicates",23.6 ×10⁻⁶ cm/s
same,Papp A→B at 30 min,"[10]; Papp(cm/s), Figure 2P, group Mono, individual replicates",31 ×10⁻⁶ cm/s
same,Papp A→B at 30 min,"[10]; Papp(cm/s), group h, Figure 1D/1E, single biological replicate",31.7 ×10⁻⁶ cm/s
same,Papp A→B at 30 min,"[10]; Papp(cm/s), group hCEMC/D3 mono-culture, Figure 1F, single replicate",36.2 ×10⁻⁶ cm/s
same,Papp A→B at 30 min,"[10]; Papp, Mono group, single replicates, Figure 2R",30.7 ×10⁻⁶ cm/s
same,Papp A→B at 30 min,"[10]; Papp, Mono group, single replicates, Figure 2T",30.8 ×10⁻⁶ cm/s
same,Papp A→B,U251 cells monolayer,30.6 ×10⁻⁶ cm/s and 31.9 ×10⁻⁶ cm/s and 30.2 ×10⁻⁶ cm/s
same,Papp A→B at 30 min,[11]; [12],30.6 ×10⁻⁶ cm/s
same,Papp A→B at 30 min,[11]; [13],29.5 ×10⁻⁶ cm/s
